Assay results: US6565890B2, “Antiviral drugs containing heteropolyanions” (priority 2001, dated 2003)

Tests used:
Type in all cases: cell-based
[1] = system: DFV, FluV-A, RSV, PfluV, CDV, HIV; assay: Spectrum of antiviral activity (FIG. 3), MTT colorimetric method; conditions: all viruses of FIG. 3; in words
MT-4 and Hela CD4 cells = assay: Cytotoxicity in the anti-HIV test, MTT colorimetric method; conditions: MT-4 cells or Hela CD4 cells; in words
Method: The tissue culture cells were MT-4 and Hela CD4. The HIV was prepared from the supernatant solutions of the culture fluids of HIV-producing MT-4 and HIV cells, or Hela CD4 and HIV cells. The media were 10% fetal calf serum, and for culturing, 0.2 ml of MT-4 cells or Hela CD4 cells and 0.2 ml of HIV cells were placed in each well of a 24-well culture tray. After virus adsorption (the virus infectivity titer was 100-CCID50 per about 10^5 cells), each drug such as PM-1001 diluted in a medium was added, to make a total amount of 1.0 ml, and the mixture was cultured at 37° C. for 4 to 6 days. As controls, cells not infected with HIV and cells untreated with any drug such as PM-1001 were used. […] In the MTT colorimetry, the absorbance is measured by means of a colorimeter using a wavelength of 540 nm, to obtain the vital cell number proportional to the absorbance. If all the cells are dead due to virus infection, the absorbance becomes almost zero.
(§1) With the concentration of each drug such as PM-1001 as a parameter, the cell growth rate was examined. […] That is, the drug concentration capable of improving the absorbance of […] up to 50% (to prevent cytocidal cell degeneration) is obtained and expressed in micromoles (μM). […] ND stands for “not determined”.

[2] = system: HIV (human immunodeficiency virus); assay: Inhibition of HIV cytopathic effect, MTT colorimetric method; conditions: HIV produced with either MT-4 cells or Hela CD4 cells; in words, figures only in FIG. 2
Method: The antiviral effect against HIV (human immunodeficiency virus) and cytotoxicity of the PM-1001 and PM-1002 of this invention synthesized as described above were examined in comparison with those of K6[C0W12O40]. (called PM-1003), i.e., a heteropolyoxotungstate salt having perfect Keggin structure and conventional dextran sulfate (DS5000) and azidothymidine (AZT) respectively utilized because of their excellent anti-HIV effect. The inhibition of cell growth of HIV was measured according to the MTT colorimetric method.
The tissue culture cells were MT-4 and Hela CD4. The HIV was prepared from the supernatant solutions of the culture fluids of HIV-producing MT-4 and HIV cells, or Hela CD4 and HIV cells. […] In the MTT colorimetry, the absorbance is measured by means of a colorimeter using a wavelength of 540 nm, to obtain the vital cell number proportional to the absorbance. If all the cells are dead due to virus infection, the absorbance becomes almost zero.
as §1

in vitro = conditions: for respective culture cells; read-out: toxicity CC50

| Molecule | antiviral effects (FIG. 3, EC50 comparison) [1] | adverse effects (cytotoxicity) (MT-4 and Hela CD4 cells) | potent efficacy against HIV [2] | CC50 (in vitro) |
| --- | --- | --- | --- | --- |
| K6H6[(SbW9O33)2V3O3].29.5H2O [PM-1002] | remarkably excellent antiviral effects | low adverse effects | very high potent efficacies | – |
| K6H4[(SbW9O33)2V3O3].29.5H2O [PM-1001] | remarkably excellent antiviral effects | low adverse effects | very high potent efficacies | – |
| NC(=O)c1ncn([C@@H]2O[C@H](CO)[C@@H](O)[C@H]2O)n1 [ribavirin] | – | – | – | > 100 µM |
